Results as given in PubChem BioAssay AID1963983 (Molecular Pharmacology Branch, DTP, NCI, 2024).

System: 186277-243-T-J2-PDC multi-cell spheroid viability
Experiment: Anticancer human tumor 186277-243-T-J2-PDC patient-derived colon adenocarcinoma cell line growth inhibition [PI3K]
Details: for IC50: curve of first compound; for viability, T/C: stronger effect = lower value
Text: Combinatorial screen of targeted agents with the PI3K inhibitors inavolisib, alpelisib, duvelisib, and copanlisib in multi-cell type tumor spheroids
A high-throughput screen of multi-cell type tumor spheroids was designed to identify active combinations of targeted small molecules and PI3K pathway inhibitors. Complex spheroids include a stromal component modeled by human endothelial cells (HUVEC) and fibroblasts modeled by human mesenchymal stem cells (MSCs). The concentration ranges selected for each drug and investigational agent were based upon clinically achievable concentrations if the clinical Cmax of the agent was known.
Compounds. The drugs and investigational agents: inavolisib (NSC800729), alpelisib (NSC765974), duvelisib (NSC772469), copanlisib (NSC816437), ipatasertib (NSC767898), afuresertib (NSC778305), talazoparib (NSC767125), sapanisertib (NSC764658), selumetinib (NSC741078), tovorafenib (DAY101, NSC766906), vemurafenib (NSC761431), ravoxertinib (NSC781343), sotorasib (NSC818433), MRTX1133 (NSC 836407), abemaciclib (NSC 768073), palbociclib (NSC758247), venetoclax (NSC 766270), SY5609 (NSC837396), enzalutamide (NSC755605), and darolutamide (NSC825331), were obtained from the National Cancer Institute (NCI) Developmental Therapeutics Program Chemical Repository. The FDA-approved anticancer drug set is available from the NCI Developmental Therapeutics Program. […] The stock solutions were prepared in dimethyl sulfoxide (DMSO, Sigma-Aldrich, St. Louis, MO, cat. D2650) at 800-fold the tested concentration and stored at -70 degrees C prior to their use. All drugs and investigational agents were tested over a range starting from a high concentration at or near the clinical Cmax and decreasing in half-log increments. If the clinical Cmax for an agent had not been determined, the highest concentration tested was 10 microM.
Cell Culture. All cells were maintained in an incubator at 37 degrees C and 5% CO2 with 95% humidity. The PDC lines were cultured according to standard operating procedures established by the NCI PDMR (https://pdmr.cancer.gov/sops/default.htm). All PDCs were thawed and cultured in Matrigel-coated flasks prepared with a working solution of 1X Ham's F-12 nutrient mix, without supplementation (Invitrogen, Waltham, MA, cat. 11765054), 100 U/mL penicillin-streptomycin (Invitrogen, cat. 15140122), and 2.5% Matrigel (Corning Inc., Corning, NY, cat. 354248) for the first three passages. The 354836-022-R-J1-PDC, 475296-252-R-J1-PDC, and 997726-040-R-J2-PDC lines were cultured in 6A media, which includes advanced DMEM/F-12 (Thermo Fisher Scientific, cat. 12634028), 10 mM HEPES (Thermo Fisher Scientific, cat. 15630080), 1X GlutaMAX supplement (Thermo Fisher Scientific, cat. 35050061), 0.1 mg/mL primocin (InvivoGen, San Diego, CA, cat. ant-pm-2), 10% defined fetal bovine serum, heat inactivated (HyClone Laboratories Inc., Logan, UT, cat. SH30070.03HI), 50% L-WRN conditioned media (ATCC, cat. CRL-3276), 1.25 mM N-Acetyl-L-cysteine (Sigma-Aldrich, cat. A9165), 10 mM nicotinamide (Sigma-Aldrich, cat. N0636), 1X B-27 supplement (Thermo Fisher Scientific, cat. 17504044), 1X N-2 supplement (Thermo Fisher Scientific, cat. 17502048), and 10 microM Y-27632 dihydrochloride (Tocris Bioscience, Bristol, United Kingdom, cat. 1254). The 624824-186-R-J2-PDC line was cultured in 6C/Colon 1B media, which includes all 6A media components plus 50 ng/mL human EGF recombinant protein (Thermo Fisher Scientific, cat. PHG0311). […]
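Also: spheroids exposed to compounds for seven days before viability reading.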
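For viability, T/C in this document: 100% = DMSO vehicle control viability.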

IC50 (second compound 0.0316 µM): > 10 µM
IC50 (second compound 0.1 µM): > 10 µM
IC50 (second compound 0.316 µM): > 10 µM
IC50 (second compound 1 µM): > 10 µM
IC50 (second compound 3.16 µM): > 10 µM
IC50 (second compound 10 µM): > 10 µM
SMILES: CNC(=O)c1ccc(N2C(=S)N(c3ccc(C#N)c(C(F)(F)F)c3)C(=O)C2(C)C)cc1F + CC(Nc1ncnc2nc[nH]c12)c1cc2cccc(Cl)c2c(=O)n1-c1ccccc1
viability, T/C (second compound 0.0316 µM, first compound 0.0316 µM): 100%
viability, T/C (second compound 0.0316 µM, first compound 0.1 µM): 117%
viability, T/C (second compound 0.0316 µM, first compound 0.316 µM): 90.9%
viability, T/C (second compound 0.0316 µM, first compound 1 µM): 90.1%
viability, T/C (second compound 0.0316 µM, first compound 3.16 µM): 101%
viability, T/C (second compound 0.0316 µM, first compound 10 µM): 92%
viability, T/C (second compound 0.1 µM, first compound 0.0316 µM): 99.7%
viability, T/C (second compound 0.1 µM, first compound 0.1 µM): 107%
viability, T/C (second compound 0.1 µM, first compound 0.316 µM): 88.6%
viability, T/C (second compound 0.1 µM, first compound 1 µM): 115%
viability, T/C (second compound 0.1 µM, first compound 3.16 µM): 115%
viability, T/C (second compound 0.1 µM, first compound 10 µM): 99.8%
viability, T/C (second compound 0.316 µM, first compound 0.0316 µM): 104%
viability, T/C (second compound 0.316 µM, first compound 0.1 µM): 119%
viability, T/C (second compound 0.316 µM, first compound 0.316 µM): 102%
viability, T/C (second compound 0.316 µM, first compound 1 µM): 104%
viability, T/C (second compound 0.316 µM, first compound 3.16 µM): 112%
viability, T/C (second compound 0.316 µM, first compound 10 µM): 113%
viability, T/C (second compound 1 µM, first compound 0.0316 µM): 89.3%
viability, T/C (second compound 1 µM, first compound 0.1 µM): 112%
viability, T/C (second compound 1 µM, first compound 0.316 µM): 117%
viability, T/C (second compound 1 µM, first compound 1 µM): 116%
viability, T/C (second compound 1 µM, first compound 3.16 µM): 106%
viability, T/C (second compound 1 µM, first compound 10 µM): 103%
viability, T/C (second compound 3.16 µM, first compound 0.0316 µM): 116%
viability, T/C (second compound 3.16 µM, first compound 0.1 µM): 128%
viability, T/C (second compound 3.16 µM, first compound 0.316 µM): 103%
viability, T/C (second compound 3.16 µM, first compound 1 µM): 106%
viability, T/C (second compound 3.16 µM, first compound 3.16 µM): 118%
viability, T/C (second compound 3.16 µM, first compound 10 µM): 92.9%
viability, T/C (second compound 10 µM, first compound 0.0316 µM): 90.5%
viability, T/C (second compound 10 µM, first compound 0.1 µM): 102%
viability, T/C (second compound 10 µM, first compound 0.316 µM): 103%
viability, T/C (second compound 10 µM, first compound 1 µM): 96.6%
viability, T/C (second compound 10 µM, first compound 3.16 µM): 92.1%
viability, T/C (second compound 10 µM, first compound 10 µM): 89.4%
